Source: US7635696B2, “Isoxazoline-indole derivatives with an improved antipsychotic and anxiolytic activity” (Janssen Pharmaceutica N.V., priority 2004, dated 2009)

What was measured:
[1] = target: T1, Human Dopamine D2L receptor (Homo sapiens, UniProt P14416); experiment: Binding experiment for dopamine D2 receptor ([3H]Spiperone); conditions: D2L-transfected CHO cell membranes; for IC50: read-out: pIC50 D2 (converted)
T1 construct: expressed in transfected cells; host or cells: CHO cells
Protocol: (§1) The interaction of the compounds of Formula (I) with dopamine-receptors, h5HT-transporter and h5HT1A receptor was assessed in in vitro radioligand binding experiments. In general, a low concentration of a radioligand with a high binding affinity for a particular receptor or transporter is incubated with a sample of a tissue preparation enriched in a particular receptor or transporter or with a preparation of cells expressing cloned human receptors in a buffered medium. During the incubation, the radioligand binds to the receptor or transporter. When equilibrium of binding is reached, the receptor bound radioactivity is separated from the non-bound radioactivity, and the receptor- or transporter-bound activity is counted. The interaction of the test compounds with the receptor is assessed in competition binding experiments. Various concentrations of the test compound are added to the incubation mixture containing the receptor- or transporter preparation and the radioligand. The test compound in proportion to its binding affinity and its concentration inhibits binding of the radioligand.
Human Dopamine D2L receptor-transfected CHO cells were collected by scraping into ice-cold Tris-HCl buffer (50 mM, pH 7.4). The suspension was centrifuged (23 500×g, 10 min, 4° C.) and pellets stored at −70° C. until required. They were then thawed and briefly homogenised using an Ultra-Turrax T25 homogeniser prior to dilution to an appropriate protein concentration optimised for specific and non-specific binding. [^3H]Spiperone (NEN, specific activity ˜70 Ci/mmol) was diluted in Tris-HCl assay buffer containing NaCl, CaCl2, MgCl2, KCl (50, 120, 2, 1, and 5 mM respectively, adjusted to pH 7.7 with HCl) at a concentration of 2 nmol/L. Prepared radioligand (50 μl) was then incubated (30 min, 37° C.) with membrane preparations pre-diluted to an appropriate protein concentration (400 μl), and with 50 μl of either the 10% DMSO control, Butaclamol (10^−6 mol/L final concentration), or compound of interest. Membrane-bound activity was detected by filtration through a Packard Filtermate harvester onto Unifilterplates, washing with ice-cold Tris-HCl buffer (50 mM; pH8.0; 3×4 ml). Filters were allowed to dry before adding scintillation fluid and counting in a Topcount scintillation counter. % Specific bound and competition binding curves were calculated using S-Plus software (Insightful).

[2] = target: T2, Human 5HT1A receptor (Homo sapiens, UniProt P08908); experiment: Binding experiment for 5-HT1A receptor ([3H]8OHDPAT); conditions: transfected L929 cell membranes, [3H]8OHDPAT; for IC50: read-out: pIC50 5-HT1A (converted)
T2 construct: expressed in transfected cells; host or cells: L929 cells (stably transfected)
T2 sequence (P08908 1-422): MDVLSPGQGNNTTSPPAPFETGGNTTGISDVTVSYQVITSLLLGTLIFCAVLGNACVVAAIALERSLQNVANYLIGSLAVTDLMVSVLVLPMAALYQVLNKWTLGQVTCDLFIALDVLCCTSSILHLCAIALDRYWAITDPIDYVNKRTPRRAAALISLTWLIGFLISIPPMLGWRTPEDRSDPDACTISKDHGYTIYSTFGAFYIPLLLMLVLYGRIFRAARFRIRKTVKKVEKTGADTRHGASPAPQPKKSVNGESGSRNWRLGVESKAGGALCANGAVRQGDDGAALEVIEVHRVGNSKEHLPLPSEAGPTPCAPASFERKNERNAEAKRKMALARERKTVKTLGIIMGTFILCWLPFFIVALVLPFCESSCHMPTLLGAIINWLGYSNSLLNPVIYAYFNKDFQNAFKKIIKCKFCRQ
Protocol: as §1
Human 5HT1A receptor-transfected L929 cells were collected by scraping into ice-cold Tris-HCl buffer (50 mM, pH 7.4). The suspension was centrifuged (23 500×g, 10 min, 4° C.) and pellets stored at −70° C. until required. They were then thawed and briefly homogenised using an Ultra-Turrax T25 homogeniser prior to dilution to an appropriate protein concentration optimised for specific and non-specific binding. [^3H]80HDPAT (NEN, specific activity 127 Ci/mmol) was diluted in Tris-HCl assay buffer containing CaCl2 (50 mM and 4 mM, respectively; pH 7.7) at a concentration of 5 nmol/L. Prepared radioligand (50 μl) was then incubated (30 min, 37° C.) with membrane preparations from L929 cells stably-transfected with the h5HT1A gene construct (400 μl) and with 50 μl of either the 10% DMSO control, spiroxatrine (10^−6 mol/L final concentration), or compound of interest. Membrane-bound activity was detected by filtration through a Packard Filtermate harvester onto Unifilterplates, washing with ice-cold Tris-HCl buffer (3×4 ml), followed by drying. Scintillation fluid was added and membranes were counted in a Topcount scintillation counter. % Specific bound and competition binding curves were calculated using S-Plus software (Insightful).

[3] = target: T3, Human Dopamine D3 receptor (Homo sapiens, UniProt P35462); experiment: Binding experiment for dopamine D3 receptor ([125I]Iodosulpride); conditions: transfected CHO cell membranes; for IC50: read-out: pIC50 D3 (converted)
T3 construct: expressed in transfected cells; host or cells: CHO cells
Protocol: as §1
Human Dopamine D3 receptor-transfected CHO cells were collected by scraping into ice-cold Tris-HCl buffer (50 mM, pH 7.4). The suspension was centrifuged (23 500×g, 10 min, 4° C.) and pellets stored at −70° C. until required. They were then thawed and briefly homogenised using an Ultra-Turrax T25 homogeniser prior to dilution to an appropriate protein concentration optimised for specific and non-specific binding. [^125I]Iodosulpride (Amersham, specific activity 2000 Ci/mmol) was diluted in Tris-HCl assay buffer containing NaCl, CaCl2, MgCl2, KCl and BSA (50, 120, 2, 1, 5 mM, 0.1% respectively, adjusted to pH 7.7 with HCl) at a concentration of 2 nmol/L. Prepared radioligand (20 μl) was incubated (60 min, RT) and with 20 μl of either the 10% DMSO control, Risperidone (10^−6 mol/L final concentration), or compound of interest, then with membrane preparations (80 μl). Overnight incubation followed after addition of WGA-coated PVT SPA beads (250 μl; Amersham) and membrane-bound counts measured in a Wallac Microbeta. % Specific bound and competition binding curves were calculated using S-Plus software (Insightful).

[4] = target: T4, human 5HT transporter (Homo sapiens, UniProt P31645); experiment: Binding experiment for 5-HT transporter ([3H]Paroxetine); conditions: transfected HEK cell membranes, [3H]Paroxetine; for IC50: read-out: pIC50 5HTT (converted)
T4 construct: host or cells: HEK cells
Protocol: as §1
Frozen human 5HT transporter-transfected HEK cells (Perkin Elmer, Brussels) were thawed and briefly homogenised using an Ultra-Turrax T25 homogeniser prior to dilution to an appropriate protein concentration optimised for specific and non-specific binding. [^3H]Paroxetine (NEN, specific activity 20 Ci/mmol) was diluted in Tris-HCl assay buffer containing NaCl and KCl (50 mM, 120 mM and 5 mM, respectively; pH 7.4) at a concentration of 5 nmol/L. Prepared radioligand (25 μl) was then incubated (60 min, 25° C.) with membrane preparations (200 μl) and with 25 μl of either 10% DMSO control, Inipramine (10^−6 mol/L final concentration), or compound of interest. Membrane-bound activity was detected by filtration through a Packard Filtermate harvester onto Unifilterplates pre-soaked in 0.1% PEI, washing with ice-cold assay buffer (3×4 ml). Filters were dried prior to addition of scintillation fluid and then counting in a Topcount scintillation counter. % Specific bound and competition binding curves were calculated using S-Plus software (Insightful).

T1 sequence (P14416 whole entry): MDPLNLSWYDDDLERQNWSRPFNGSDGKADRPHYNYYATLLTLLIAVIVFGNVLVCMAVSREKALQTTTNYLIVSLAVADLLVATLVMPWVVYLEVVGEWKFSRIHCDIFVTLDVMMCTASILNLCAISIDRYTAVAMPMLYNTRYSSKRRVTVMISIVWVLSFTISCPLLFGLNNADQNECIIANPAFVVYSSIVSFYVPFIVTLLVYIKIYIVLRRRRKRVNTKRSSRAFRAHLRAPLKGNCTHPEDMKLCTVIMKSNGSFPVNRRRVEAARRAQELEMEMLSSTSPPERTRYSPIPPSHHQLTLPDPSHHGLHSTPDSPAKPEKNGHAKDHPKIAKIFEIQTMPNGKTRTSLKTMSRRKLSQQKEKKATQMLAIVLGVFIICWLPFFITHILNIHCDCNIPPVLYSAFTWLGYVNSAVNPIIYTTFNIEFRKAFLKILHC
T3 sequence (P35462 whole entry): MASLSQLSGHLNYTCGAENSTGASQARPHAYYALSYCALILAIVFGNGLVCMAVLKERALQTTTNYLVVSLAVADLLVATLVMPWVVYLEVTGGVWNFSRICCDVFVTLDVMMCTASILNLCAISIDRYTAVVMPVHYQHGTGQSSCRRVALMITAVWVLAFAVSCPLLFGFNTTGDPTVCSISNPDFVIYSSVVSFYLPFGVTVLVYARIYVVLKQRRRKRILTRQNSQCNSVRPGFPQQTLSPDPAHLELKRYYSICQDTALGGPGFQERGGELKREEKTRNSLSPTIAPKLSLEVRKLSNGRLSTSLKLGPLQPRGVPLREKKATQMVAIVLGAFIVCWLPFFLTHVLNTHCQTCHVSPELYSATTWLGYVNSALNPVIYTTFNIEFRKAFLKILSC
T4 sequence (P31645 whole entry): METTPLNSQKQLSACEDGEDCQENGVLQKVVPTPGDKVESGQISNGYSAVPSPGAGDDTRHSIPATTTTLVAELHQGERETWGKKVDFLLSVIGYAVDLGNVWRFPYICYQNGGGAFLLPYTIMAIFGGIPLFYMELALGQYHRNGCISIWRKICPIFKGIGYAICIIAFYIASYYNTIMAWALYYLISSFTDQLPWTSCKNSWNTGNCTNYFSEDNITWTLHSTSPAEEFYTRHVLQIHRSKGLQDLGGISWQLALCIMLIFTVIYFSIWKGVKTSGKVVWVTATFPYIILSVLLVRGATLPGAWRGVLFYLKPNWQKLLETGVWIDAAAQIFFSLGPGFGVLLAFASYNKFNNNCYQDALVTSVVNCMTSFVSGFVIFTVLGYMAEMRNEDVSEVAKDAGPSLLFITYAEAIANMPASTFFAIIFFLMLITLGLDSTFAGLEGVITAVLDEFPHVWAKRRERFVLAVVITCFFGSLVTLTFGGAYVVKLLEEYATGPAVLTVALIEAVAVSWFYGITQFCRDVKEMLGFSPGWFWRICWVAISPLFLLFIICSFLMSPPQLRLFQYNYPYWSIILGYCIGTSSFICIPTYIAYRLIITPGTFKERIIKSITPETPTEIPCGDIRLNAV

Structure (SMILES)	pIC50 D2 [1]	pIC50 5-HT1A [2]	pIC50 D3 [3]	pIC50 5HTT [4]	IC50 [1]	IC50 [2]	IC50 [3]	IC50 [4]
COc1cc2c(cc1OC)C1=NOC(CN3CC=C(c4c[nH]c5ccc(C#N)cc45)CC3)C1CO2 (racemic) [Compound 23]	6.1	8.2	6.8	7.4	–	–	–	–
COc1cc2c(cc1OC)C1=NOC(CN3CC=C(c4c[nH]c5ccc([N+](=O)[O-])cc45)CC3)C1CO2 (racemic) [Compound 19]	6.1	8.1	6.5	7.1	–	–	–	–
COc1cc2c(cc1OC)C1=NOC(CN3CC=C(c4c[nH]c5cc(F)ccc45)CC3)C1CO2 (racemic) [Compound 27]	6.9	7.2	6.4	7.6	–	–	–	–
COc1cc2c(cc1OC)C1=NOC(CN3CC=C(c4c[nH]c5ccc(Br)cc45)CC3)C1CO2 (racemic) [Compound 10]	6.3	8.3	6.5	6.7	–	–	–	–
COc1cc2c(cc1OC)C1=NOC(CN3CC=C(c4c[nH]c5ccccc45)CC3)C1CO2 (single isomer, unassigned) [Compound 14]	6.8	8.3	6.5	7.5	–	–	–	–
COc1cc2c(cc1OC)C1=NOC(CN3CC=C(c4c[nH]c5ccc(F)cc45)CC3)C1CO2 (racemic) [Compound 1]	–	–	–	–	398 nM	31.6 nM	126 nM	15.8 nM
COc1cc2c(cc1OC)C1=NOC(CN3CC=C(c4c[nH]c5cccc(F)c45)CC3)C1CO2 (racemic) [Compound 9]	6.1	8.2	6.6	7.5	–	–	–	–
COc1cc2c(cc1OC)C1=NOC(CN3CCC(c4c[nH]c5ccc(N)cc45)CC3)C1CO2 (racemic) [Compound 20]	6.2	7.6	<6	5.4	–	–	–	–
COc1cc2c(cc1OC)C1=NOC(CN3CCC(c4c[nH]c5cccc(F)c45)CC3)C1CO2 (racemic) [Compound 17]	6.9	8.2	6.3	7.6	–	–	–	–
COc1cc2c(cc1OC)C1=NOC(CN3CCC(c4c[nH]c5cc(F)ccc45)CC3)C1CO2 (racemic) [Compound 26]	7.9	8.2	6.7	7.6	–	–	–	–
COc1ccc2[nH]cc(C3=CCN(CC4ON=C5c6cc(OC)c(OC)cc6OCC54)CC3)c2c1 (racemic) [Compound 7]	<6	8.1	<6	6.4	–	–	–	–
COc1cc2c(cc1OC)C1=NOC(CN3CC=C(c4c[nH]c5ccccc45)CC3)C1CO2 (single isomer, unassigned) [Compound 6]	<6	6.6	6.2	7.1	–	–	–	–
COc1cc2c(cc1OC)C1=NOC(CN3CCC(c4c[nH]c5c(F)cccc45)CC3)C1CO2 (racemic) [Compound 30]	6.0	7.4	6.4	6.5	–	–	–	–
COc1cc2c(cc1OC)C1=NOC(CN3CC=C(c4c[nH]c5ccc(F)cc45)CC3)C1CO2 (single isomer, unassigned) [Compound 12]	6.5	7.6	7.3	8.0	–	–	–	–
COc1cc2c(cc1OC)C1=NOC(CN3CC=C(c4c[nH]c5cccc(F)c45)CC3)C1CO2 (single isomer, unassigned) [Compound 16]	6.0	7.1	6.5	6.9	–	–	–	–
COc1cc2c(cc1OC)C1=NOC(CN3CC=C(c4c[nH]c5ccc(O)cc45)CC3)C1CO2 (racemic) [Compound 21]	–	–	–	–	631 nM	12.6 nM	158 nM	39.8 nM
COc1cc2c(cc1OC)C1=NOC(CN3CC=C(c4c[nH]c5ccc(C)cc45)CC3)C1CO2 (racemic) [Compound 18]	6.4	8.2	6.4	7.0	–	–	–	–
COc1cc2c(cc1OC)C1=NOC(CN3CCC(c4c[nH]c5ccc(Cl)cc45)CC3)C1CO2 (racemic) [Compound 32]	6.8	8.5	6.6	7.4	–	–	–	–
COc1cc2c(cc1OC)C1=NOC(CN3CC=C(c4c[nH]c5cccc(F)c45)CC3)C1CO2 (single isomer, unassigned) [Compound 13]	6.2	8.7	6.8	7.7	–	–	–	–
COc1cc2c(cc1OC)C1=NOC(CN3CCC(c4c[nH]c5ccc(F)cc45)CC3)C1CO2 (racemic) [Compound 2]	7.2	8.8	7.2	7.4	–	–	–	–
COCCOCOc1ccc2[nH]cc(C3=CCN(CC4ON=C5c6cc(OC)c(OC)cc6OCC54)CC3)c2c1 (centres unmarked) [Compound 62]	–	–	–	–	> 10000 nM	63.1 nM	–	> 10000 nM
